Test results published in publication PMC9504842, “Comprehensive Metabolic Profiling of Euphorbiasteroid in Rats by Integrating UPLC-Q/TOF-MS and NMR as Well as Microbial Biotransformation” (Metabolites, 2022).
Read-outs that look alike come from different tables or passages of the source.

How the values were obtained:
[1] = In vitro incubation of euphorbiasteroid with rat liver microsomes, metabolite detection; assay type: in vitro ADME; details: 37 °C, 1 h, NADPH regenerating system
Protocol: The microsomal incubation approach was based on previous metabolism studies published by Wintermeyer et al. and Franziska et al.. A 200 μL incubation system containing 10 μL of solution A, 2 μL of solution B, 5 μL of rat liver microsomes (20 mg/mL) and 182 μL 0.1 M PBS buffer (pH = 7.4) was constructed. The above solution was heated in a 37 °C water bath, then 1 μL of euphorbiasteroid (dissolved in DMSO solution, 10 mM) was used to start the reaction, and the mixture was then incubated at 37 °C for 1 h. The reactions were terminated by the addition of 200 μL of ice-cold acetonitrile. The mixture was then centrifuged at 13,000 rpm for 10 min, and a 2-μL aliquot of the supernatant was directly injected into the UPLC-Q-TOF-MS system.
(§1) First, the metabolites of euphorbiasteroid in rats (plasma, urine, and feces), RLMs, and C. elegans culture medium were predicted by setting the prototype components and potential biological metabolic reactions in UNIFI 4.1 software. Then, the predicted metabolites in each sample were further compared according to the characteristic mass spectrum behaviors (including parent ions, internal cleavage in the ion source, and characteristic fragment ions of each metabolite) and retention times.

[2] = system: SH-SY5Y neuroblastoma cells; assay: CCK-8 cell cytotoxicity assay, SH-SY5Y; assay type: cell-based; details: Homo sapiens, read-out: IC50 (μM) SH-SY5Y
Protocol: (§2) Cell cytotoxicity was determined by the CCK-8 assay. Four strains of human cells (SH-SY5Y) were seeded in 96-well plates at a density of 3 × 10^3 cells/well under 37 °C and 5% CO2 for 12 h and subsequently treated with the test sample solution (euphorbiasteroid and its metabolites, 10 μL) for 72 h. After treatment, each well with 10 μL CCK-8 reagent was incubated for 1–2 h in the incubator. Afterwards, the optical OD-value was measured at 450 nm through a microplate reader. Three multiple wells were set as parallel experimental groups.
(§3) Euphorbiasteroid and its metabolites were tested for their cytotoxicity on human cell lines SH-SY5Y, LO2, AC-16, and HK-2 by the CCK-8 assay. […] Therefore, considering the high content of euphorbiasteroid in Euphorbiae semen, it was speculated that the metabolites from hydroxylation and hydrolysis might be the potential toxic constituents of Euphorbiae semen.

[3] = system: Cunninghamella elegans bio-110930; assay: Microbial transformation of euphorbiasteroid, metabolite detection; details: C. elegans bio-110930 culture with euphorbiasteroid
Protocol: The biotransformation process was conducted at two scales: preliminary screening and preparative. Preliminary screening scale biotransformation of euphorbiasteroid was carried out in 250 mL Erlenmeyer flasks containing 100 mL of liquid medium. The flasks were placed on a rotary shaker (160 rpm, 28 °C). A standard two-stage fermentation protocol was employed in all experiments. After 2 days of pre-culture, the substrates of 5 mg (dissolved in 0.5 mL of acetone) were added into each flask. Taking 1 mL samples on days 0, 2, 4, 7, 10, and 14, samples were centrifuged and the degree of transformation was compared to controls on TLC and HPLC, and a 2-μL aliquot of the supernatant was directly injected into the UPLC-Q-TOF-MS system. Culture controls consisted of sterile medium, in which microorganisms were grown under identical conditions without substrate. Substrate controls were composed of sterile medium and the same amount of substrate incubated under the same conditions without microorganisms.
as §1

[4] = system: HK-2 cells; assay: CCK-8 cell cytotoxicity assay, HK-2; assay type: cell-based; details: Homo sapiens, read-out: IC50 (μM) HK-2
Protocol: as §2, §3

[5] = system: LO2 cells; assay: CCK-8 cell cytotoxicity assay, LO2; assay type: cell-based; details: Homo sapiens, read-out: IC50 (μM) LO2
Protocol: as §2, §3

[6] = system: AC-16 cells; assay: CCK-8 cell cytotoxicity assay, AC-16; assay type: cell-based; details: Homo sapiens, read-out: IC50 (μM) AC-16
Protocol: as §2, §3

[7] = Metabolite detection in rats (plasma, urine, feces) after oral euphorbiasteroid by UPLC-Q/TOF-MS; assay type: in vivo, Sprague-Dawley rats; details: single oral dose 100 mg/kg euphorbiasteroid
Protocol: For metabolite separation and detection, chromatographic analyses were performed using a Waters Acquity UPLC I-class system (Waters, Milford, MA, USA), equipped with an auto-sampler, a binary solvent delivery system, an online degasser, and a photodiode array detector. An ACQUITY UPLC® HSS T3 column (2.1 × 150 mm, 1.8 μm, Waters) protected with a HSS T3 VanGuard ™ Pre-Column 3/Pk (2.1 × 5.0 mm, 1.8 μm, Waters) was used. The optimized parameters were set as follows: the mobile phase consisted of eluent A (0.1% formic acid in water, v/v) and eluent B (acetonitrile). The flow rate was 0.3 mL/min. The column and auto-sampler temperatures were maintained at 40 °C and 4 °C, respectively. The gradient elution program was optimized as follows: 0–9 min, 30–70% B; 9–13 min, 70–90% B; 13–17 min, 90–100% B; 17–20 min, 100–100% B.
The mass spectrometry detection was performed on the SYNAPT G2-Si HDMS system, equipped with an electrospray ionization (ESI) source (Waters Corp., Manchester, UK). A positive ion mode was conducted in this analysis. Mass spectrometry conditions were finally set as follows: capillary voltage of 3.0 kV, cone voltage of 40 V, source temperature of 120 °C, and de-solvation temperature of 400 °C. Nitrogen was used as the desolvation and cone gas with a flow rate of 800 and 50 L/h, respectively, and the full-scan mass range was set as m/z 50–1500 Da. In the auto mass spectrometry mode, the collision-induced dissociation energies were set at 0 eV for the precursor ion at the low-energy mode, and the collision-induced dissociation energies were set from 2 to 10 eV for the high-energy mode. Real-time data were calibrated using an external reference (LockSpray™) at a concentration of 0.2 ng/mL with an infusion flow rate of 5 μL/min, generating a reference ion for the positive ion mode (m/z 556.2771) during the UPLC-MS analysis. Data were acquired and processed using MassLynx ™ NT 4.1 software (Waters, Milford, MA, USA).
Male Sprague-Dawley rats (200–220 g) were commercially supplied by Shanghai Sippr-BK Laboratory Animal Co., Ltd. (Shanghai, China) and were housed in a humidity- and temperature-controlled room (50 ± 10% and 22–24 °C) with a 12-h light/dark cycle. The experimental rats were allowed to access food and water ad libitum and acclimatized to the conditions mentioned above for a week, then fasted overnight but with free access to water before the experiments. Euphorbiasteroid was dissolved in soybean oil solution (containing 0.5% ethanol) to form a concentration of 10 mg/mL. A single dose of 100 mg/kg euphorbiasteroid was orally administered to rats and the same concentration of soybean oil solution (containing 0.5% ethanol) was administered as a blank control. All animal procedures were performed in accordance with the Guidelines for Care and Use of Laboratory Animals of Naval Medical University and approved by the Animal Ethics Committee of Naval Medical University.
Blood samples (0.5 mL) were collected from six rats through the orbital sinus before administration (blank sample) and 0.25, 0.5, 1, 2, 4, 6, and 12 h after administration. Plasma samples were prepared by centrifugation at 4000 rpm for 10 min. For urine and feces sampling, 12 rats were divided into an administration group and a blank group, and were placed separately in stainless steel metabolic cages. Urine and feces samples were collected in containers surrounded by ice over 0–6, 6–12, and 12–24 h after drug administration. The mixed urine samples were centrifuged at 4000 rpm for 10 min at 4 °C to obtain the supernatants, and fecal samples were left in a cool and dry place until dry. All the biological samples were frozen at −80 °C before analysis.
An aliquot of 200 µL of plasma and urine samples was put in a 1.5 mL tube, respectively. 800 µL of acetonitrile was added and vortexed for 5 min to extract metabolites. Feces samples (1.0 g) were crushed and then ultrasonically extracted with acetonitrile (10 mL) for 30 min. […]

[8] = system: human cell lines SH-SY5Y, LO2, AC-16, and HK-2; assay: CCK-8 cytotoxicity, summary over four human cell lines; assay type: cell-based; details: span over SH-SY5Y, LO2, AC-16, HK-2 (and over the named metabolites), read-out: IC50 values against four human cell lines
Protocol: as §2, §3

Row | Structure (SMILES) | Distribution RLMs (metabolite detected) [1] | IC50 ([2]; 72 h) [µM] | Distribution Fungi (metabolite detected) [3] | IC50 ([4]; HK-2, 72 h) [µM] | IC50 ([5]; L02, 72 h) [µM] | IC50 ([6]; 72 h) [µM] | Distribution Rat Faeces (metabolite detected) [7] | Distribution Rat Plasma (metabolite detected) [7] | Distribution Rat Urine (metabolite detected) [7] | IC50 ([2]; CCK-8, 72 h treatment) [µM] | IC50 [8] [µM] | IC50 ([4]; HK-2, CCK-8, 72 h treatment) [µM] | IC50 ([5]; L02, CCK-8, 72 h treatment) [µM] | IC50 ([6]; CCK-8, 72 h treatment) [µM]
1 | CC(=O)OC1C2C(OC(=O)Cc3ccccc3)C(C)CC2(OC(C)=O)C(=O)C(CO)=CC2C(CCC13CO3)C2(C)C (centres unmarked) [Compound M3, 20-hydroxyl euphorbiasteroid] | √ | 39.6 ± 0.43 | √ | 22.7 ± 0.25 | 37.4 ± 0.41 | 17.9 ± 0.19 | √ | √ | √ | – | – | – | – | –
2 | CC1=CC2C(CCC3(CO3)C(O)C3C(O)C(C)CC3(O)C1=O)C2(C)C (centres unmarked) [Compound M24, epoxylathyrol] | √ | – | – | – | – | – | √ | √ | √ | 40.7 ± 0.44 | 3.6 to 40.7 | 26.5 ± 0.29 | 38.9 ± 0.42 | 21.7 ± 0.24
3 | CC(=O)OC1C2C(OC(=O)Cc3ccccc3)C(C)CC2(O)C(=O)C(C)=CC2C(CCC13CO3)C2(C)C (centres unmarked) [Compound M25, 15-deacetyl euphorbiasteroid] | √ | 33.3 ± 0.36 | – | 16.1 ± 0.18 | 30.1 ± 0.33 | 3.6 ± 0.04 | √ | √ | √ | – | – | – | – | –
